From patent US8192962B2, “Processes for detecting toxic substances” (Daikin Industries, Ltd., priority 2001, dated 2012)

Test system: Detoxification protein genes
Experiment: DNA chip mRNA expression in yeast, detoxification protein genes (Table 8)
Format: cell-based, Saccharomyces cerevisiae S288C
Method: Yeast (Saccharomyces cerevisiae S288C (α SUC2mal mel gap2 CUP1)) were incubated at 25° C. on YPD medium (yeast extract 1%, polypepton 2%, glucose 2%). One of toxic chemical substances was added to the cells at logarithmic growth phase, and the cells were further incubated for two hours. Cells were cultured without any chemical substance in the same condition, and were used as control. Concentrations of the chemical substances were defined to inhibit the growth of the yeast but not lead to death.
After completion of the incubation, the culture was centrifuged to collect the cells. To the cells, sodium acetate buffer (50 mM sodium acetate, 10 mM EDTA, 1% SDS) was added, and the mixture was shaken at 65° C. for five minutes, followed by returning to room temperature, and obtaining the supernatant, of which the procedures were repeated two times. To the supernatant, ½ amount of a solution of phenol/chloroform was added, and the mixture was centrifuged to give a supernatant, which was added with an equal amount of chloroform, and the mixture was centrifuged to give a supernatant. To the supernatant, an equal amount of isopropanol containing 0.3 M sodium acetate was added, and the mixture was allowed to stand at room temperature for 30 minutes, after which the mixture was centrifuged to give a sediment of the whole RNAs. Seventy % ethanol was added to the sediment, and the mixture was again centrifuged to give a sediment, which was then dried and dissolved in water. mRNA was isolated from the whole RNAs as followings. In view of the fact that a poly A chain is attached to the 3′ terminus of mRNA, a polynucleotide having a poly T structure which was immobilized on the surface of latex beads was used to trap the mRNA, and then the mRNA was washed and eluted with spine column (Oligotex-dT30<Super>mRNA Purification Kit, Takara). Reverse transcription of the mRNA was conducted with a reverse transcriptase (Super Script II Reverse Transcriptase; catalogue No. 18064-014, GibcoBRL) using fluorescence-labeled nucleotides to give cDNAs that were introduced with Cy3-dUTP or Cy5-dUTP during the reverse transcription.
The labeled cDNAs were dissolved in TE buffer (10mM Tris-HCl/1 mM EDTA, pH8.0), and the solution was dropped on the DNA chip containing the whole genes of yeast (DNA Chip Research Inc. Japan) so that the cDNAs were hybridized on the DNA chip at 65° C. for over 12 hours. The fluoresces intensity of the DNA chip was read with a scanner, and the ratio relative to the fluorescence intensity resulting from the absence of chemical substance was estimated as the following, which is shown in Tables 1 to 9: […]

For `CCCCCCCCCCCCc1ccc(S(=O)(=O)[O-])cc1.[Na+]` [(17), sodium dodecylbenzosulfonate], the “The level of expressed mRNA in the presence of chemical substance/The level of expressed mRNA in the absence of chemical substance” value (yeast gene YBL064C) was 1.2, the “The level of expressed mRNA in the presence of chemical substance/The level of expressed mRNA in the absence of chemical substance” value (yeast gene YBR008C) was 2.0 and the “The level of expressed mRNA in the presence of chemical substance/The level of expressed mRNA in the absence of chemical substance” value (yeast gene YBR145W) was 1.7. For the same molecule, the “The level of expressed mRNA in the presence of chemical substance/The level of expressed mRNA in the absence of chemical substance” value (yeast gene YBR244W) was 1.2, the “The level of expressed mRNA in the presence of chemical substance/The level of expressed mRNA in the absence of chemical substance” value (yeast gene YBR293W) was 1.0 and the “The level of expressed mRNA in the presence of chemical substance/The level of expressed mRNA in the absence of chemical substance” value (yeast gene YCL035C) was 2.6. The “The level of expressed mRNA in the presence of chemical substance/The level of expressed mRNA in the absence of chemical substance” value (yeast gene YCL069W) was 1.0, the “The level of expressed mRNA in the presence of chemical substance/The level of expressed mRNA in the absence of chemical substance” value (yeast gene YCR083W) was 1.3 and the “The level of expressed mRNA in the presence of chemical substance/The level of expressed mRNA in the absence of chemical substance” value (yeast gene YDL100C) was 1.2. The “The level of expressed mRNA in the presence of chemical substance/The level of expressed mRNA in the absence of chemical substance” value (yeast gene YDL168W) was 0.9, the “The level of expressed mRNA in the presence of chemical substance/The level of expressed mRNA in the absence of chemical substance” value (yeast gene YDR256C) was 1.0 and the “The level of expressed mRNA in the presence of chemical substance/The level of expressed mRNA in the absence of chemical substance” value (yeast gene YDR453C) was 1.0. For the same molecule, the “The level of expressed mRNA in the presence of chemical substance/The level of expressed mRNA in the absence of chemical substance” value (yeast gene YDR513W) was 1.3, the “The level of expressed mRNA in the presence of chemical substance/The level of expressed mRNA in the absence of chemical substance” value (yeast gene YDR538W) was 1.0 and the “The level of expressed mRNA in the presence of chemical substance/The level of expressed mRNA in the absence of chemical substance” value (yeast gene YEL027W) was 1.0. For the same molecule, the “The level of expressed mRNA in the presence of chemical substance/The level of expressed mRNA in the absence of chemical substance” value (yeast gene YEL065W) was 0.7, the “The level of expressed mRNA in the presence of chemical substance/The level of expressed mRNA in the absence of chemical substance” value (yeast gene YER185W) was 2.6 and the “The level of expressed mRNA in the presence of chemical substance/The level of expressed mRNA in the absence of chemical substance” value (yeast gene YFL050C) was 0.8. The “The level of expressed mRNA in the presence of chemical substance/The level of expressed mRNA in the absence of chemical substance” value (yeast gene YGL013C) was 1.1, the “The level of expressed mRNA in the presence of chemical substance/The level of expressed mRNA in the absence of chemical substance” value (yeast gene YGL254W) was 0.8 and the “The level of expressed mRNA in the presence of chemical substance/The level of expressed mRNA in the absence of chemical substance” value (yeast gene YGR088W) was 0.9. For the same molecule, the “The level of expressed mRNA in the presence of chemical substance/The level of expressed mRNA in the absence of chemical substance” value (yeast gene YGR138C) was 0.7, the “The level of expressed mRNA in the presence of chemical substance/The level of expressed mRNA in the absence of chemical substance” value (yeast gene YGR197C) was 1.7 and the “The level of expressed mRNA in the presence of chemical substance/The level of expressed mRNA in the absence of chemical substance” value (yeast gene YGR209C) was 1.3. For the same molecule, the “The level of expressed mRNA in the presence of chemical substance/The level of expressed mRNA in the absence of chemical substance” value (yeast gene YGR224W) was 2.8, the “The level of expressed mRNA in the presence of chemical substance/The level of expressed mRNA in the absence of chemical substance” value (yeast gene YHL040C) was 1.4 and the “The level of expressed mRNA in the presence of chemical substance/The level of expressed mRNA in the absence of chemical substance” value (yeast gene YHL047C) was 1.2. The “The level of expressed mRNA in the presence of chemical substance/The level of expressed mRNA in the absence of chemical substance” value (yeast gene YHR008C) was 0.9, the “The level of expressed mRNA in the presence of chemical substance/The level of expressed mRNA in the absence of chemical substance” value (yeast gene YHR048W) was 0.7 and the “The level of expressed mRNA in the presence of chemical substance/The level of expressed mRNA in the absence of chemical substance” value (yeast gene YHR053C) was 1.0. For the same molecule, the “The level of expressed mRNA in the presence of chemical substance/The level of expressed mRNA in the absence of chemical substance” value (yeast gene YHR055C) was 0.9, the “The level of expressed mRNA in the presence of chemical substance/The level of expressed mRNA in the absence of chemical substance” value (yeast gene YIR002C) was 1.1 and the “The level of expressed mRNA in the presence of chemical substance/The level of expressed mRNA in the absence of chemical substance” value (yeast gene YIR038C) was 2.8. For the same molecule, the “The level of expressed mRNA in the presence of chemical substance/The level of expressed mRNA in the absence of chemical substance” value (yeast gene YJL101C) was 0.9, the “The level of expressed mRNA in the presence of chemical substance/The level of expressed mRNA in the absence of chemical substance” value (yeast gene YJR104C) was 0.9 and the “The level of expressed mRNA in the presence of chemical substance/The level of expressed mRNA in the absence of chemical substance” value (yeast gene YKL026C) was 1.6. For the same molecule, the “The level of expressed mRNA in the presence of chemical substance/The level of expressed mRNA in the absence of chemical substance” value (yeast gene YKL064W) was 1.3, the “The level of expressed mRNA in the presence of chemical substance/The level of expressed mRNA in the absence of chemical substance” value (yeast gene YKR066C) was 0.9 and the “The level of expressed mRNA in the presence of chemical substance/The level of expressed mRNA in the absence of chemical substance” value (yeast gene YKR105C) was 0.8. For the same molecule, the “The level of expressed mRNA in the presence of chemical substance/The level of expressed mRNA in the absence of chemical substance” value (yeast gene YKR106W) was 0.9, the “The level of expressed mRNA in the presence of chemical substance/The level of expressed mRNA in the absence of chemical substance” value (yeast gene YLL028W) was 1.2 and the “The level of expressed mRNA in the presence of chemical substance/The level of expressed mRNA in the absence of chemical substance” value (yeast gene YLL057C) was 3.0. For the same molecule, the “The level of expressed mRNA in the presence of chemical substance/The level of expressed mRNA in the absence of chemical substance” value (yeast gene YLL060C) was 1.9, the “The level of expressed mRNA in the presence of chemical substance/The level of expressed mRNA in the absence of chemical substance” value (yeast gene YLR043C) was 1.5 and the “The level of expressed mRNA in the presence of chemical substance/The level of expressed mRNA in the absence of chemical substance” value (yeast gene YLR046C) was 5.2. The “The level of expressed mRNA in the presence of chemical substance/The level of expressed mRNA in the absence of chemical substance” value (yeast gene YML028W) was 1.1, the “The level of expressed mRNA in the presence of chemical substance/The level of expressed mRNA in the absence of chemical substance” value (yeast gene YML116W) was 1.0 and the “The level of expressed mRNA in the presence of chemical substance/The level of expressed mRNA in the absence of chemical substance” value (yeast gene YMR015C) was 1.0. The “The level of expressed mRNA in the presence of chemical substance/The level of expressed mRNA in the absence of chemical substance” value (yeast gene YMR038C) was 1.2, the “The level of expressed mRNA in the presence of chemical substance/The level of expressed mRNA in the absence of chemical substance” value (yeast gene YNL239W) was 1.1 and the “The level of expressed mRNA in the presence of chemical substance/The level of expressed mRNA in the absence of chemical substance” value (yeast gene YNL241C) was 1.0. The “The level of expressed mRNA in the presence of chemical substance/The level of expressed mRNA in the absence of chemical substance” value (yeast gene YNL259C) was 2.6, the “The level of expressed mRNA in the presence of chemical substance/The level of expressed mRNA in the absence of chemical substance” value (yeast gene YOL158C) was 1.4 and the “The level of expressed mRNA in the presence of chemical substance/The level of expressed mRNA in the absence of chemical substance” value (yeast gene YOR031W) was 1.7. The “The level of expressed mRNA in the presence of chemical substance/The level of expressed mRNA in the absence of chemical substance” value (yeast gene YOR153W) was 2.5, the “The level of expressed mRNA in the presence of chemical substance/The level of expressed mRNA in the absence of chemical substance” value (yeast gene YOR247W) was 1.2 and the “The level of expressed mRNA in the presence of chemical substance/The level of expressed mRNA in the absence of chemical substance” value (yeast gene YOR251C) was 0.9. The “The level of expressed mRNA in the presence of chemical substance/The level of expressed mRNA in the absence of chemical substance” value (yeast gene YOR273C) was 3.2, the “The level of expressed mRNA in the presence of chemical substance/The level of expressed mRNA in the absence of chemical substance” value (yeast gene YPL163C) was 1.4 and the “The level of expressed mRNA in the presence of chemical substance/The level of expressed mRNA in the absence of chemical substance” value (yeast gene YPR200C) was 1.1.
